Experimental data as given in a melting point compilation (Tetko et al.; mined from patent text by program, amines drawn as free bases though some values may be those of a salt).

SMILES	melting point
Cc1ccc(-c2cc3cc(Cl)c(Cl)cc3o2)cc1	129 to 130 °C
COC(=O)COc1ccc(C(C)=O)c2ccccc12	123 to 125 °C
CC(C)c1cccc(C(C)C)c1NC(=O)NS(=O)(=O)Cl	130 to 134 °C
Oc1cccc(SCCCSc2ccc(Cl)cc2)c1	102 °C
CN(c1cccc2cc(C3=NCC(C)(CN)S3)[nH]c12)S(=O)(=O)c1cccs1 (stereo not given)	164 to 165 °C
CCc1c(C(=O)O)sc2[nH]c(=O)c(=O)[nH]c12	230 to 232 °C
C[C@]1(Cn2cc([N+](=O)[O-])nc2Cl)CO1	65.5 to 67 °C
CCOC(=O)c1cn(C2CC2)c2c(F)c(CCc3cc(Cc4cnc(N)nc4N)cc(OC)c3OC)c(F)cc2c1=O	218 to 220 °C
Cc1nnc(Cl)c(-c2c(F)cc(F)cc2F)c1-c1ccc(Cl)nc1	182 to 183 °C
Clc1ncn(COc2ccc(Oc3ccccc3)cc2)c1Cl	82 to 83 °C
O=[N+]([O-])c1ccc(Oc2cc(Cl)c(Cl)cc2Cl)c(Cl)c1Oc1ccccc1	112 °C
N#Cc1cnn2cccc2c1Nc1ccccc1	164 °C
CCCCn1cnc2c(Oc3cccc(OC)c3)nc(Nc3ccc(F)cc3)nc21	138 to 140 °C
COc1cc(C)c(C)cc1NC(=O)N1CCN(c2cc(-c3ccccc3)ccc2OC)CC1	139 to 140 °C
CS(=O)(=O)c1ccc(-n2nc(C(F)(F)F)cc2-c2ccc(-c3ccco3)cc2F)cc1	223 to 225 °C
CCCN(C)c1ncc2cc(-c3ccc(C(=O)N4CCN(C)CC4)cc3)[nH]c2n1	222 to 224 °C
CSCc1cc([N+](=O)[O-])ccc1N	72 to 77 °C
COC(=O)c1ccc2c(c1)C(SCCO)c1ccccc1CC2 (stereo not given)	107 to 109 °C
CCOC(=O)c1ccc(NCCCOc2ccc(Cl)cc2)cc1	87 to 88 °C
O=C1NC(=O)C(Cc2ccc(OCc3cccc(-c4ccccc4)c3)cc2)S1 (stereo not given)	109 to 111 °C
O=C(Nc1nnc(SCC(=O)C23CC4CC(CC(C4)C2)C3)s1)C1CC1	218 to 219 °C
CCCCc1nn(-c2cc(NC(=S)CCC)ccc2Cl)c(=O)n1Cc1ccc(-c2ccccc2S(=O)(=O)NC(=O)OC(C)(C)C)cc1F	115 to 117 °C
Clc1ncc(C(c2ccccc2)c2ccccc2)cc1C(c1ccccc1)c1ccccc1	131 to 133 °C
O=C(NC1C(=O)Nc2ccccc2SC1c1ccccc1)OCc1ccccc1 (stereo not given)	246 to 248 °C
COc1ccc(C(=O)Oc2ccc(O)cc2)cc1	162 to 165 °C

SMILES	melting point
Nc1ncnc2c1ncn2OCC/C=C/P(=O)(O)O	238 °C
CCN(CC)CCNC(=O)c1cc(NS(C)(=O)=O)c(Cl)cc1OC	123 to 124 °C
CN(C)CCNC(=O)c1nc(N)sc1-c1ccccn1	143 to 144 °C
CC(C)(C)OC(=O)c1sc(NCc2ccccc2)c2c1CCCC2=O	125 to 126 °C
N#CC(N)c1ccc(F)cc1F (stereo not given)	52 °C
Cn1cc(C(=O)NCc2ccc(Cl)cc2)c(=O)c2cc(/C=C\CO)cc(F)c21	182 to 184 °C
O=c1c(C(F)(F)F)cn(Cc2ccccc2)c(=O)n1CCCCl	100 to 101 °C
C[C@H](CO)Nc1nc(SCc2ccccc2)nc2[nH]c(=O)[nH]c12	284 °C
O=C1NCCc2ccc(OCCCCN3CCN(c4cccc5c4OCC5)CC3)nc2N1	72 to 73 °C
Cc1nc(-c2ccccc2)nc(OCC(=O)Nc2ccccc2)c1C	212 to 213 °C
CCOC(=O)c1ncc2[nH]c3cccc(CO)c3c2c1COC	139 to 140 °C
O=C1NC(=O)C2(C(=O)N(Cc3ccc(Cl)c(Cl)c3)c3ccccc32)N1C(=O)c1ccccc1 (stereo not given)	251 to 253 °C
CC1=C(C(=O)OC(C)C)C(c2cccc([N+](=O)[O-])c2)N(C(=O)Oc2ccc([N+](=O)[O-])cc2)C(=O)N1 (stereo not given)	138 to 140 °C
CCCCc1c(C(C)C)nc(C(C)C)c(CO)c1-c1ccccc1	83 to 84 °C
Cc1ccc(-c2ccc3c(c2)C=C(C(=O)O)CC3)cc1	230 to 231 °C
CCCN(CCC)C(=O)Cc1ccc(OCC(=O)c2ccc(OC)cc2)c([N+](=O)[O-])c1	95 to 97 °C
C=C=Cc1c(C)nc2c(OCc3ccccc3C)cccn12	88 to 89 °C
CN1CCN(C2=Nc3ccc(Cl)cc3S(=O)(=O)N2)CC1	> 300 °C
Cc1cc(C)cc(Nc2nnc(Cc3ccncc3)c3ccccc23)c1	174 to 175 °C
CC(C)n1nc(-c2cnc(N)nc2-c2cccc(Cl)c2)ccc1=O	236 to 237 °C
COc1cc(N)c(Cl)cc1C(=O)NC1CCN(C(=O)OC(C)(C)C)CC1F (stereo not given)	198 to 199 °C
COc1ccc([C@@H]2CCCC[C@H]2C#N)c(OC)c1OC (relative stereo)	69 to 72 °C
COc1ccc(S(=O)(=O)C2(Cc3ccccc3)SC(=O)N(CC(=O)NO)C2=O)cc1 (stereo not given)	81 to 85 °C
O=C(CC1c2ccccc2C(=O)N1c1ccccc1)N1CCCCC1 (stereo not given)	122 to 123 °C
Nc1cc(-n2nc3ccc(Cl)cn3c2=O)c(F)cc1Cl	247 to 250 °C

SMILES	melting point
N#CC1(c2ccc(C(=O)c3cccs3)cc2)CC1	106 °C
CN1CCC(=O)C(C2c3ccccc3Oc3ccccc32)C1 (stereo not given)	160 to 162 °C
CCCCN(CCCC)c1cc(OC)c(C=O)c(OC)c1	55 to 56 °C
N#CC(Cl)Cc1cccc([N+](=O)[O-])c1 (stereo not given)	90 °C
COC(=O)c1cc2ccc(OCc3ccccc3)cc2oc1=O	129 to 130 °C
CCCc1cc(-c2ccc(Cl)cc2)nc2c(C(=O)Nc3cccc(S(=O)(=O)NC(C)(C)CO)c3)cnn12	207 to 208 °C
Cc1ccc(OCC(=O)O)c(I)n1	170 to 172 °C
CC(C)(CCCCOCCCCc1ccc(N2CCOCC2)cc1)NCC(O)c1ccc(O)c(NS(C)(=O)=O)c1 (stereo not given)	165 to 167 °C
CCOC(=O)c1nc(-c2ccc([N+](=O)[O-])cc2)[nH]c1-c1cccc(OC)c1	194 to 196 °C
COc1ccc(-n2nc(CCC(=O)NO)cc2-c2ccc(Cl)cc2)cc1	154 to 156 °C
CC(C)(C)OC(=O)NNc1ccc([N+](=O)[O-])cn1	132 to 134 °C
CCCCOc1ccc(Cc2cc3c(cn2)COC3)cc1	213 to 215 °C
CCCN(CCC)Cc1nc(-c2ncn3c2CN(C)C(=O)c2sccc2-3)no1	128 to 130 °C
CCCCCCCCCCCCCCOc1ccc(C(=O)C(Br)c2ccc([N+](=O)[O-])cc2)cc1 (stereo not given)	55 to 56 °C
CCCc1c(SCCCOc2ccc(C(C)=O)c(OCCCC(=O)O)c2CCC)ccc(C(C)=O)c1O	79 to 81 °C
CC(C)(C)NC(=O)NN1CC=CCC1	156 °C
CC(=O)N(O)C(C)c1ccc(-c2ccc(OCc3nc4ccccc4s3)cc2)cc1 (stereo not given)	197 to 199 °C
Cc1nnc(C(C)NC(=O)CC(C)C)c(=O)[nH]1 (stereo not given)	224 to 226 °C
CSC1=CC2=CN(S)NN2C(SC)=N1	250 to 252 °C
COc1cc(C2CCN(CC(N)=O)CC2)ccc1Nc1ncc2ccc(-c3cccc(S(=O)(=O)NC(C)(C)C)c3)n2n1	250 to 252 °C
COc1ccc(S(=O)(=O)Nc2ccccc2NC(=O)c2ccccc2[N+](=O)[O-])cc1	168 to 170 °C
O=C1C(c2ccccc2)=C(c2ccccc2)C(=O)N1C1CCCCC1	159 to 160 °C
CC(Cl)(Cl)C(NC(=O)c1ccc(Cl)cc1)NC(=N[N+](=O)[O-])Nc1cccnc1 (stereo not given)	170 to 172 °C
COc1ccccc1NC(=S)c1ccc(C)cc1	91 to 93 °C
COCCOc1cc2ncc(C#N)c(Nc3ccc4cn[nH]c4c3)c2cc1OCCOC	105 to 110 °C

SMILES	melting point
CCOC(=O)c1cc(C)nc(NN=C(C)C)c1	79 to 82 °C
O=C(c1ccccc1)c1ccc2nc(-c3ccc(Br)o3)[nH]c2c1	167 to 172 °C
CS(=O)(=O)c1ccc(-c2cnn(-c3cccc(Cl)c3)c(=O)c2Oc2cccc(F)c2)cc1	178 to 180 °C
COc1ccc(C=C2NC(=O)NC2=O)cc1OCc1ccccc1	242 to 244 °C
CCCCc1nnc(-c2ccc(OC)cc2)n1-c1ccc(OC)cc1	94 °C
CC(C)C1N2C=CC=CC2=CC1(C=C(Br)Br)c1ccc(F)cc1 (stereo not given)	134 to 135 °C
CN1C(=O)CCC2(C)C1=CCc1cc(F)ccc12 (stereo not given)	110 to 111 °C
FC(F)(F)c1cc(-c2ccc(Cl)cc2)nc2c(-c3cccnc3)ncn12	206 °C
C=CCOc1cc(C=CC(=O)O)ccc1OC(C)=O	154 to 155 °C
Cc1ccc2c(c1)S(=O)(=O)CC(COC(=O)Nc1ccccc1)(COC(=O)Nc1ccccc1)C2=O	85 to 95 °C
COc1ccc2cc3c(N)nn(CN(C)C)c3nc2c1	156 to 158 °C
CC(=O)N(CCCCC(=O)O)C(c1ccccc1)c1ccccc1	135 to 136 °C
c1cc2cc(CSc3nnc(-c4ccc5c(c4)CCO5)o3)ccc2o1	145 to 147 °C
CC(C(=O)O)c1ccc(-c2nc3ccccc3o2)cc1 (stereo not given)	174 to 178 °C
COc1cc(CCC=O)ccc1OCc1nc(-c2ccccc2)oc1C	80 to 81 °C
CC(=O)NOCc1nc2c(N)nc3c(c2n1CC(C)C)CCCC3	187 to 188 °C
O=c1c2ccccc2[nH]c2c1cnn2-c1ccccn1	240 to 242 °C
O=C(NCc1ccncc1)c1cc(-n2cnn(Cc3ccc(F)cc3)c2=O)n[nH]1	262 to 263 °C
CCCC(C)C(=O)Nc1cccc(O)c1 (stereo not given)	136 to 137 °C
CC(C)c1occc1S(=O)(=O)c1ccc(O)cc1	131 °C
O=C(O)c1ccccc1C=Cc1ccc(-c2cc3ccc4ccccc4c3o2)cc1	210 to 211 °C
Cn1cc(C(=O)NCc2ccc(Cl)cc2)c(=O)c2cc(CN3CCOCC3)cc(C#Cc3ccncc3)c21	200 to 202 °C
CC(C)(C)OC(=O)N1CCC(C#N)(c2cccc(C(F)(F)F)c2)CC1	72 to 73 °C
CCC12CCC3C(=CCC4(C)C(O)CCC34)C1(C)CCC(O)C2 (stereo not given)	165 °C
O=C1CC2(C(=O)N1)C(=O)N(Cc1ccc(Cl)c(Cl)c1)c1ccc(Cl)cc12 (stereo not given)	268 to 270 °C
